What was measured:
[1] = molecular target: T1, FAP (Homo sapiens, UniProt Q12884); experiment: In vitro inhibition assay on human FAP (Z-GP-AMC substrate); format: biochemical; conditions: enzymatic assay; 20 µM Z-GP-AMC, 20 nM FAP; unit inferred
T1 sequence (Q12884 1-760): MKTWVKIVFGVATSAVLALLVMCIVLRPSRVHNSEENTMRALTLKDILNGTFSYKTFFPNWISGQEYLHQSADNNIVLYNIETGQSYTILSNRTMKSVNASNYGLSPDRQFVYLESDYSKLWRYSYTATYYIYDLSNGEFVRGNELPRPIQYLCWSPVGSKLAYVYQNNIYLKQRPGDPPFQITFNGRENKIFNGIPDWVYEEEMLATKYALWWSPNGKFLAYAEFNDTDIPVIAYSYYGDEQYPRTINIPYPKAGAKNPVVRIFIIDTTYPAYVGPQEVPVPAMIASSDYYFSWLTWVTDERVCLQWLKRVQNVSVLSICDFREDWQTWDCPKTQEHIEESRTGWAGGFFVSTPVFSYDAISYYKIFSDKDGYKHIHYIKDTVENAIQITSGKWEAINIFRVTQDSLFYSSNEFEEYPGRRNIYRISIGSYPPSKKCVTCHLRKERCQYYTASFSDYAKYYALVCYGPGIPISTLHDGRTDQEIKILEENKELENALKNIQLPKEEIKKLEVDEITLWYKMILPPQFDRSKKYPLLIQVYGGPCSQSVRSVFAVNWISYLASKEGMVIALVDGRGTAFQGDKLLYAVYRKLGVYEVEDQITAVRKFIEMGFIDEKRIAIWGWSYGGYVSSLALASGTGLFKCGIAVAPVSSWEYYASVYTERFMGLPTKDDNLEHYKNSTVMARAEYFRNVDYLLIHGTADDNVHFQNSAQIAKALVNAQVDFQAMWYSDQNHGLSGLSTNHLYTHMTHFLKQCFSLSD
Procedure: (§1) Enzymatic activity of human FAP (hFAP) and mouse FAP (mFAP) on the Z-GP-AMC substrate was measured at room temperature on a Hidex microplate reader by monitoring the fluorescence at an excitation wavelength of 360 nm and an emission wavelength of 465 nm. The reaction mixture contained 20 µM substrate, 20 nM FAP, assay buffer (50 mM Tris, 100 mM NaCl, 1 mM EDTA, pH 7.4) and tested compound (serial dilution from 10^-6 to 10^-12) in a total volume of 50 µL.

[2] = molecular target: T2, murine FAP (Mus musculus, UniProt P97321); experiment: In vitro inhibition assay on mouse FAP (Z-GP-AMC substrate); format: biochemical; conditions: enzymatic assay; 20 µM Z-GP-AMC, 20 nM FAP; unit inferred
T2 sequence (P97321 1-761): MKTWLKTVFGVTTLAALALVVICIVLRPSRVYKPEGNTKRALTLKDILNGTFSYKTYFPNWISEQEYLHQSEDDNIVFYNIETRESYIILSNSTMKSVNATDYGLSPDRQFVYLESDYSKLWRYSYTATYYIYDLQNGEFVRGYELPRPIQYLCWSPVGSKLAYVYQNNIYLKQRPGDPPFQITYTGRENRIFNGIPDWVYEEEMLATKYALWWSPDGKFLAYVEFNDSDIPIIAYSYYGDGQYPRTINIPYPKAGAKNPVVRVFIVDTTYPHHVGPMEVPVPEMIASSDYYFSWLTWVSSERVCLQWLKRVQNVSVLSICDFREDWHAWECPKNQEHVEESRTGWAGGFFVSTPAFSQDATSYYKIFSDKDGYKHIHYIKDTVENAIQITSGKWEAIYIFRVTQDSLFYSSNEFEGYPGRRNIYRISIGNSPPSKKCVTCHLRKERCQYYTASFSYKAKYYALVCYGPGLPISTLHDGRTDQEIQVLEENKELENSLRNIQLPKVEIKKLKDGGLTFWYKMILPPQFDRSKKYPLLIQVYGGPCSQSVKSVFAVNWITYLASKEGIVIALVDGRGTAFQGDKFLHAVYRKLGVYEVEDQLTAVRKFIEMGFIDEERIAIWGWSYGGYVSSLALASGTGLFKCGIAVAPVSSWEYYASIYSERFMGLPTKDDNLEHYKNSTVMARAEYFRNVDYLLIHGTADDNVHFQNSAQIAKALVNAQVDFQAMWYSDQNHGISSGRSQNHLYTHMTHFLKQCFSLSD
Procedure: as §1

N#C[C@@H]1CC(F)(F)CN1C(=O)CNC(=O)c1ccnc2c(OCCCNC(=O)CN3CCN(CC(=O)O)CCN(CC(=O)O)CCN(CC(=O)O)CC3)cccc12 [eFAP-6, (S)-2,2',2"-(10-(2-((3-((4-((2-(2-Cyano-4,4-difluoropyrrolidin-1-yl)-2-oxoethyl)carbamoyl)quinolin-8-yl)oxy)propyl)amino)-2-oxoethyl)-1,4,7,10-tetraazacyclododecane-1,4,7-triyl)triacetic acid]
IC50 [1]: 1.6 ± 0.5 nM
IC50 [2]: 3.1 ± 2.4 nM
